In ChEMBL document CHEMBL6087488, “Development of the First-in-Class FEM1B-Recruiting Histone Deacetylase Degraders” (J Med Chem, 2025):
One block for each compound: values may come before it. The source made the active and inactive calls. The rule behind the calls is not given here.

How the values were obtained:
MM1.S [1] = assay: Antiproliferative activity against human MM1.S cells assessed as cell viability measured after 72 hrs by CellTiter-Glo cell viability assay; assay type: functional, cell-based
[2] = biological target: Protein fem-1 homolog B/Histone deacetylase 4 (Homo sapiens) (UniProt P56524+Q9UK73); assay: PROTAC activity at FEM1B/HDAC4 in human MM1.S cell lysate assessed as protein degradation at 1 uM measured after 24 hrs by Western immunoassay; assay type: subcellular
MM1.S [3] = assay: Induction of cell cycle arrest in human MM1.S cells assessed as reduction in cells at […] phase at 10 uM measured after 48 hrs by propidium iodide based flow cytometry; assay type: functional
MDA-MB-231 [4] = assay: Antiproliferative activity against human MDA-MB-231 cells assessed as cell viability measured after 72 hrs incubation by MTT assay; assay type: functional, cell-based; settings: MDA-MB-231, 72 h
[5] = biological target: Protein fem-1 homolog B/Histone deacetylase 2 (Homo sapiens) (UniProt Q92769+Q9UK73); assay: PROTAC activity at FEM1B/HDAC2 in human MM1.S cell lysate assessed as protein degradation at 1 uM measured after 24 hrs by Western immunoassay; assay type: subcellular
[6] = biological target: Protein fem-1 homolog B/Histone deacetylase 3 (Homo sapiens) (UniProt O15379+Q9UK73); assay: PROTAC activity at FEM1B/HDAC3 in human MM1.S cell lysate assessed as protein degradation at 1 uM measured after 24 hrs by Western immunoassay; assay type: subcellular
Histone deacetylase 1 = Histone deacetylase 1 (Homo sapiens, UniProt Q13547); assay: Inhibition of human recombinant HDAC1 using ZMAL (Z-(Ac)Lys-AMC) as substrate incubated for 90 mins by fluorescence based assay
Histone deacetylase 2 = Histone deacetylase 2 (Homo sapiens, UniProt Q92769); assay: Inhibition of human HDAC2 using ZMAL (Z-(Ac)Lys-AMC) as substrate incubated for 90 mins by fluorescence based assay
[7] = biological target: T1, Protein fem-1 homolog B/Histone deacetylase 1 (Homo sapiens, UniProt Q13547+Q9UK73); assay: PROTAC activity at FEM1B/HDAC1 in human MM1.S cell lysate assessed as initial degradation measured after 24 hrs by Western immunoassay; assay type: subcellular
Target sequence in this assay (Q13547 whole entry): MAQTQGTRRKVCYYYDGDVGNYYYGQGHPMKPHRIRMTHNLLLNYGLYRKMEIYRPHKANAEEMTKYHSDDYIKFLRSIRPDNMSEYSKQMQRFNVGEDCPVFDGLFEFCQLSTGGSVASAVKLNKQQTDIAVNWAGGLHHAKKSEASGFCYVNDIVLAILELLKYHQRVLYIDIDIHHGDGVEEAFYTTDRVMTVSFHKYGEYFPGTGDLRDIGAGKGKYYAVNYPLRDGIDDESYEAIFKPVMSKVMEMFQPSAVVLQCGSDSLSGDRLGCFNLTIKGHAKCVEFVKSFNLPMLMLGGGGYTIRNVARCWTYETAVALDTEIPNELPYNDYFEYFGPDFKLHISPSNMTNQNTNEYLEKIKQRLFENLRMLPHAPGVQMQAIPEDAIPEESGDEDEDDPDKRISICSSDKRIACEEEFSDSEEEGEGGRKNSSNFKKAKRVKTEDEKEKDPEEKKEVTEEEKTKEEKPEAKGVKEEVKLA
Target sequence in this assay (Q9UK73 whole entry): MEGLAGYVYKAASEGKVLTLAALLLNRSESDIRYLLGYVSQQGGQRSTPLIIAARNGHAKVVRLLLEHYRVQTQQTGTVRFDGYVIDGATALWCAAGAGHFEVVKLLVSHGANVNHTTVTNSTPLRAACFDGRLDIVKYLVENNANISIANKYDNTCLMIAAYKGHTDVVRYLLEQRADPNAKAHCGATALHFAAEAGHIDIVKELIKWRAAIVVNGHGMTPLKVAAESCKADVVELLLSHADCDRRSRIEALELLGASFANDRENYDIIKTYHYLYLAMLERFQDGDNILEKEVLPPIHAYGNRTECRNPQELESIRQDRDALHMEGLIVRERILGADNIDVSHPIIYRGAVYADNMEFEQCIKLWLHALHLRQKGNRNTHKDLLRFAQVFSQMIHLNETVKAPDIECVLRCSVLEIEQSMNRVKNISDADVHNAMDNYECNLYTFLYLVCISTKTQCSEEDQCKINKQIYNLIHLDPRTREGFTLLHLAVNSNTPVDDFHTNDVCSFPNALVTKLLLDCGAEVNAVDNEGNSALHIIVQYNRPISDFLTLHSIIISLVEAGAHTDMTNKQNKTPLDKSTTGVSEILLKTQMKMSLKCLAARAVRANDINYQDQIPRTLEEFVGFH

MM1.S [8] = assay: Antiproliferative activity against human MM1.S cells assessed as cell viability measured after 72 hrs incubation by MTT assay; assay type: functional, cell-based
[9] = biological target: T1, Protein fem-1 homolog B/Histone deacetylase 1; assay: PROTAC activity at FEM1B/HDAC1 in human MM1.S cell lysate assessed as protein degradation at 1 uM measured after 24 hrs by Western immunoassay; assay type: subcellular
Target sequence in this assay (Q13547 whole entry, looked up): as the sequence (Q13547 whole entry) above
Target sequence in this assay (Q9UK73 whole entry, looked up): as the sequence (Q9UK73 whole entry) above

[10] = biological target: Protein fem-1 homolog B/Histone deacetylase 8 (Homo sapiens) (UniProt Q9BY41+Q9UK73); assay: PROTAC activity at FEM1B/HDAC8 in human MM1.S cell lysate assessed as protein degradation at 1 uM measured after 24 hrs by Western immunoassay; assay type: subcellular
Histone deacetylase 4 = Histone deacetylase 4 (Homo sapiens, UniProt P56524); assay: Inhibition of human HDAC4 using Boc-Lys(Tfa)-AMC as substrate incubated for 90 mins by fluorescence based assay
MM1.S [11] = assay: Induction of cell cycle arrest in human MM1.s cells assessed as increase in cells at Sub-G1 phase at 10 uM measured after 48 hrs by propidium iodide based flow cytometry; assay type: functional
MV4-11 = assay: Antiproliferative activity against human MV4-11 cells assessed as cell viability measured after 72 hrs incubation by MTT assay; assay type: functional, cell-based; settings: MV4-11, 72 h
[12] = biological target: T2, Protein deacetylase HDAC6 (Homo sapiens, UniProt Q9UBN7); assay: Inhibition of human HDAC6 using ZMAL (Z-(Ac)Lys-AMC) as substrate incubated for 90 mins by fluorescence based assay
T2 sequence (Q9UBN7 whole entry): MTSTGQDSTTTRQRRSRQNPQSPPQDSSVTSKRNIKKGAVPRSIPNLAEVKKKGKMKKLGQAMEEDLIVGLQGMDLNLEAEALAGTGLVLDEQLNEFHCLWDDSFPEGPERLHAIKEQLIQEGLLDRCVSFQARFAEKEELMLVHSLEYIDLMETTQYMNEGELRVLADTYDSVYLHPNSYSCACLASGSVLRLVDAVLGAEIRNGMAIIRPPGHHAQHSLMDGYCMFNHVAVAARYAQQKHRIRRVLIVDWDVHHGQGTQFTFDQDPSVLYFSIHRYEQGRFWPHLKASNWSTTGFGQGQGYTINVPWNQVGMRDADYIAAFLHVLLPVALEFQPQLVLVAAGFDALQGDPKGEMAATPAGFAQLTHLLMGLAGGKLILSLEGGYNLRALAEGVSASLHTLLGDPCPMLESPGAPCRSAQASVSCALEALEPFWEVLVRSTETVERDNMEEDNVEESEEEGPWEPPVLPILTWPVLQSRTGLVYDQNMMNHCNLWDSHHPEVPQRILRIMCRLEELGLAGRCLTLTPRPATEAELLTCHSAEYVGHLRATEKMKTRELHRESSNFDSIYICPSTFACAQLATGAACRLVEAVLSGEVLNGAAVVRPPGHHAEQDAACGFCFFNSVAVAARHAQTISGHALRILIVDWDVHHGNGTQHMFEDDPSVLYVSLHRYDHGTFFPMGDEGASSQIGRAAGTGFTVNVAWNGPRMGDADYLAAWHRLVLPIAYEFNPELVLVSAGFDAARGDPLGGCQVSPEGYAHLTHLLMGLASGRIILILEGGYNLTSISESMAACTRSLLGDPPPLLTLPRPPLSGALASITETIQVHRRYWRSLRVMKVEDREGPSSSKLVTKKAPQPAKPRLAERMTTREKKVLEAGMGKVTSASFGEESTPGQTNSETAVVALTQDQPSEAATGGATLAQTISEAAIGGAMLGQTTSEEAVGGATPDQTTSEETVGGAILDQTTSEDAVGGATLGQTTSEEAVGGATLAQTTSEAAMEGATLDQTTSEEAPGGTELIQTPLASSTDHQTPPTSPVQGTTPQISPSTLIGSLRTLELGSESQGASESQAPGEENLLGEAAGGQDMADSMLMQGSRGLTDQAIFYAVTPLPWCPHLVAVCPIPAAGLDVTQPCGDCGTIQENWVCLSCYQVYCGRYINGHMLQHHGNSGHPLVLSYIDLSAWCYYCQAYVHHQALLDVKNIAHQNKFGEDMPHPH

MM1.S [13] = assay: Induction of apoptosis in human MM1.S cells assessed as increase in late apoptotic cells at 10 uM measured after 48 hrs by annexin V-FITC/PI staining based assay; assay type: functional, cell-based
[14] = biological target: Protein fem-1 homolog B/Protein deacetylase HDAC6 (Homo sapiens) (UniProt Q9UBN7+Q9UK73); assay: PROTAC activity at FEM1B/HDAC6 in human MM1.S cell lysate assessed as protein degradation at 1 uM measured after 24 hrs by Western immunoassay; assay type: subcellular
[15] = biological target: T1, Protein fem-1 homolog B/Histone deacetylase 1; assay: PROTAC activity at FEM1B/HDAC1 in human MM1.S cell lysate assessed as initial degradation at 1 uM measured after 24 hrs by Western immunoassay; assay type: subcellular
Target sequence in this assay (Q13547 whole entry, looked up): as the sequence (Q13547 whole entry) above
Target sequence in this assay (Q9UK73 whole entry, looked up): as the sequence (Q9UK73 whole entry) above

[16] = biological target: T1, Protein fem-1 homolog B/Histone deacetylase 1; assay: PROTAC activity at FEM1B/HDAC1 in human MM.1S cell lysate assessed as maximal initial degradation at measured after 24 hrs by Western immunoassay relative to control; assay type: subcellular; settings: MM1.S
Target sequence in this assay (Q13547 whole entry, looked up): as the sequence (Q13547 whole entry) above
Target sequence in this assay (Q9UK73 whole entry, looked up): as the sequence (Q9UK73 whole entry) above

U-87 MG [17] = assay: Antiproliferative activity against human U-87 MG cells assessed as cell viability measured after 72 hrs incubation by MTT assay; assay type: functional, cell-based, U-87MG ATCC
MM1.S [18] = assay: Induction of apoptosis in human MM1.S cells assessed as increase in early apoptotic cells at 10 uM measured after 48 hrs by annexin V-FITC/PI staining based assay; assay type: functional, cell-based
MDA-MB-231 [19] = assay: Antiproliferative activity against human MDA-MB-231 cells assessed as cell viability up to 50 uM measured after 72 hrs incubation by MTT assay relative to control; assay type: functional
U-87 MG [20] = assay: Antiproliferative activity against human U-87 MG cells assessed as cell viability up to 50 uM measured after 72 hrs incubation by MTT assay relative to control; assay type: functional, U-87MG ATCC
MM1.S [21] = assay: Antiproliferative activity against human MM1.S cells assessed as cell viability up to 50 uM measured after 72 hrs incubation by MTT assay; assay type: functional
MM1.S [22] = assay: Antiproliferative activity against human MM1.S cells assessed as cell viability up to 50 uM measured after 72 hrs by CellTiter-Glo cell viability assay; assay type: functional, cell-based

Sequence of Histone deacetylase 1 (Q13547 whole entry): as the sequence (Q13547 whole entry) above
Sequence of Histone deacetylase 2 (Q92769 whole entry): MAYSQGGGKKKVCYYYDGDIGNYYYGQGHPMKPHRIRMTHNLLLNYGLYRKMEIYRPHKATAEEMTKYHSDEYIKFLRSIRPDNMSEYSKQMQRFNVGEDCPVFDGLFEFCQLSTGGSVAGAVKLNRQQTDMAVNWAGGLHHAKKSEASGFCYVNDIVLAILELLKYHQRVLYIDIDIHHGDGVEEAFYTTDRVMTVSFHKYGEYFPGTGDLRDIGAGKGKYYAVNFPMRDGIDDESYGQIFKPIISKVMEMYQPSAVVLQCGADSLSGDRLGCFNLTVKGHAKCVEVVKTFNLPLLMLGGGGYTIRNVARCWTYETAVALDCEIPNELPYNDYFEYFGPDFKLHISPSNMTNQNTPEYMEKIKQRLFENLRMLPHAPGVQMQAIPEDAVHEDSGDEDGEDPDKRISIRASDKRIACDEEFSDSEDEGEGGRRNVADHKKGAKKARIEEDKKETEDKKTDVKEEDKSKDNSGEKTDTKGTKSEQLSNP
Sequence of Histone deacetylase 4 (P56524 whole entry): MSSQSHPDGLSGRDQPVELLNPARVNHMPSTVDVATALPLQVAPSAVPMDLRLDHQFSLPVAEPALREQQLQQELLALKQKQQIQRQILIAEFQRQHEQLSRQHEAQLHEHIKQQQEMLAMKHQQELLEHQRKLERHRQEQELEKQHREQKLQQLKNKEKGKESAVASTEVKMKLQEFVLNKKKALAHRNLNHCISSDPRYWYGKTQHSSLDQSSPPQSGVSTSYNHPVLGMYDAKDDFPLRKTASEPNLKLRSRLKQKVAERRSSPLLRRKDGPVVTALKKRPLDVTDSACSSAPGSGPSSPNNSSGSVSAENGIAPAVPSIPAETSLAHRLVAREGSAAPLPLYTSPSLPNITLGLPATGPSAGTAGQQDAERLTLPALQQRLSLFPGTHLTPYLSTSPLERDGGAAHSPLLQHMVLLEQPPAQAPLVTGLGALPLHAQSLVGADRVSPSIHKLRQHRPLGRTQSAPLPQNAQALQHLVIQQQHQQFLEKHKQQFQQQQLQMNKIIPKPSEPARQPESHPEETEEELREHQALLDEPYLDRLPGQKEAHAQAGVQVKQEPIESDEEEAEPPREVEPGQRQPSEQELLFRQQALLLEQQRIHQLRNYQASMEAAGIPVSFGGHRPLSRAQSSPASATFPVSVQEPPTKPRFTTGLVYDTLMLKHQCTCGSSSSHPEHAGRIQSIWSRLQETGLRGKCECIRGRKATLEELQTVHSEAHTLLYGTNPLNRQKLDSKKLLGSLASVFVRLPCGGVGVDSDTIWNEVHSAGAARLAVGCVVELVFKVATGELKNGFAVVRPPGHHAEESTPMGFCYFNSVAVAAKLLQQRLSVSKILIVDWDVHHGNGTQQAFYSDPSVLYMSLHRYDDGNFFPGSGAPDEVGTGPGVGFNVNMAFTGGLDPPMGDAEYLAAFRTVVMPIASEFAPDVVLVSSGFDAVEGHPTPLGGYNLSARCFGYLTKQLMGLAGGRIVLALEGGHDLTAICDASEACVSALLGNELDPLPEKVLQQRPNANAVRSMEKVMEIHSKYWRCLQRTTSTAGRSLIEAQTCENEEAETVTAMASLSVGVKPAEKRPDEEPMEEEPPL
Sequence of Protein fem-1 homolog B/Histone deacetylase 3 (Homo sapiens) (O15379 whole entry, looked up): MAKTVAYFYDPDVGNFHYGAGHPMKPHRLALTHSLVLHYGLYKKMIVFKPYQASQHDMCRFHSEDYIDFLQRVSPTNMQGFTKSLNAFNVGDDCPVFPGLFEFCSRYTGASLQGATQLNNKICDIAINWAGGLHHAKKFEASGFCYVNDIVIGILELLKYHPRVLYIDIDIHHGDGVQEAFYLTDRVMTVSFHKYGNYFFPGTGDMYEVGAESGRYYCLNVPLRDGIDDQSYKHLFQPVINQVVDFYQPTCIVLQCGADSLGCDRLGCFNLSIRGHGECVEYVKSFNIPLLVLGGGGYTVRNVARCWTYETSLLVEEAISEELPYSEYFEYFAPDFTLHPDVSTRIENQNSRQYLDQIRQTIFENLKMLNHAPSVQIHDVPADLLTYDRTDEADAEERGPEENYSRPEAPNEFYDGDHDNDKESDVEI
Sequence of Protein fem-1 homolog B/Histone deacetylase 3 (Homo sapiens) (Q9UK73 whole entry, looked up): as the sequence (Q9UK73 whole entry) above
Sequence of Protein fem-1 homolog B/Histone deacetylase 2 (Homo sapiens) (Q92769 whole entry, looked up): as the sequence (Q92769 whole entry) above
Sequence of Protein fem-1 homolog B/Histone deacetylase 2 (Homo sapiens) (Q9UK73 whole entry, looked up): as the sequence (Q9UK73 whole entry) above
Sequence of Protein fem-1 homolog B/Histone deacetylase 8 (Homo sapiens) (Q9BY41 whole entry, looked up): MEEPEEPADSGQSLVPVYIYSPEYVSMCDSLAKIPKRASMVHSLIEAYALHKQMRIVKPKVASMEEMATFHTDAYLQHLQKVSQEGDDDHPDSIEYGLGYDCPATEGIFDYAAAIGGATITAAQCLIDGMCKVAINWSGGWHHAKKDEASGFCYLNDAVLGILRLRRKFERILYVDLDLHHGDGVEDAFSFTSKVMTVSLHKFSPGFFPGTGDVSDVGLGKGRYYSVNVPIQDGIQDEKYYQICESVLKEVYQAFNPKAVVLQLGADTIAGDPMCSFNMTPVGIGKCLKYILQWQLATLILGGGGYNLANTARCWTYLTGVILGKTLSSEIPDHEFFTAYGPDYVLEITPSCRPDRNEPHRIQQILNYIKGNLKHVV
Sequence of Protein fem-1 homolog B/Histone deacetylase 8 (Homo sapiens) (Q9UK73 whole entry, looked up): as the sequence (Q9UK73 whole entry) above
Sequence of Protein fem-1 homolog B/Histone deacetylase 4 (Homo sapiens) (P56524 whole entry, looked up): as the sequence (P56524 whole entry) above
Sequence of Protein fem-1 homolog B/Histone deacetylase 4 (Homo sapiens) (Q9UK73 whole entry, looked up): as the sequence (Q9UK73 whole entry) above
Sequence of Protein fem-1 homolog B/Protein deacetylase HDAC6 (Homo sapiens) (Q9UK73 whole entry, looked up, one chain of several): as the sequence (Q9UK73 whole entry) above

SMILES: N#CCCN(C(=O)CCl)c1ccc2c(c1)OCCN2CC(=O)NCCCCCC(=O)Nc1ccc(C(=O)NCCCCCCC(=O)NO)cc1
- EC50 (MM1.S [1]; Homo sapiens, MM1.S, 72 h): 7.39 µM

SMILES: N#CCCN(C(=O)CCl)c1ccc2c(c1)OCCN2CC(=O)NCCCCCCCC(=O)Nc1ccc(C(=O)NCCCCCCC(=O)NO)cc1
- Activity [2]: inactive
- Activity (MM1.S [3]): Active
- EC50 (MDA-MB-231 [4]): 23.3 µM
- Activity [5]: Active
- Activity [6]: Active
- IC50 (Histone deacetylase 1): 0.07 µM
- IC50 (Histone deacetylase 2): 0.143 µM
- DC50 [7]: 0.228 µM
- EC50 (MM1.S [8]): 2.28 µM
- Activity [9]: Active
- Activity [10]: inactive
- EC50 (MM1.S [1]; Homo sapiens, MM1.S, 72 h): 2.28 µM
- IC50 (Histone deacetylase 4; read-out: IC50): 3.62 µM
- Activity (MM1.S [11]): Active
- EC50 (MV4-11): 0.358 µM
- IC50 [12]: 0.004 µM
- Activity (MM1.S [13]): Active
- Activity [14]: inactive
- Activity [15]: 52.8%
- Emax [16]: 67.4%
- EC50 (U-87 MG [17]): 49.7 µM
- Activity (MM1.S [18]): Active

SMILES: N#CCCN(C(=O)CCl)c1ccc2c(c1)OCCN2CC(=O)NCCOCCOCCOCCOCCC(=O)Nc1ccc(C(=O)NCCCCCCC(=O)NO)cc1
- EC50 (MM1.S [1]; Homo sapiens, MM1.S, 72 h): 42.3 µM

SMILES: N#CCCN(C(=O)CCl)c1ccc2c(c1)OCCN2CC(=O)NC[C@H]1CC[C@H](C(=O)Nc2ccc(C(=O)NCCCCCCC(=O)NO)cc2)CC1
- EC50 (MM1.S [1]; Homo sapiens, MM1.S, 72 h): 6.43 µM

SMILES: O=C(CCCCCCNC(=O)c1ccc(NC(=O)CCCCCCCNC(=O)COc2cccc3c2C(=O)N(C2CCC(=O)NC2=O)C3=O)cc1)NO (configuration not stated)
- Activity (MM1.S [3]): inactive
- Activity (MDA-MB-231 [19]): <=25%
- Activity (U-87 MG [20]): <=25%
- Activity (MM1.S [21]): <=25%
- Activity (MM1.S [11]): inactive
- EC50 (MV4-11): 17.5 µM
- Activity (MM1.S [22]): inactive
- Activity (MM1.S [13]): inactive
- Activity (MM1.S [18]): inactive

SMILES: N#CCCN(C(=O)CCl)c1ccc2c(c1)OCCN2CC(=O)N1CCC(C(=O)Nc2ccc(C(=O)NCCCCCCC(=O)NO)cc2)CC1
- Activity [2]: inactive
- Activity (MM1.S [3]): Active
- EC50 (MDA-MB-231 [4]): 8.68 µM
- Activity [5]: Active
- Activity [6]: Active
- IC50 (Histone deacetylase 1): 0.094 µM
- IC50 (Histone deacetylase 2): 0.196 µM
- DC50 [7]: 0.482 µM
- EC50 (MM1.S [8]): 4.73 µM
- Activity [9]: Active
- Activity [10]: inactive
- EC50 (MM1.S [1]; Homo sapiens, MM1.S, 72 h): 4.73 µM
- IC50 (Histone deacetylase 4; read-out: IC50): 8.6 µM
- Activity (MM1.S [11]): Active
- EC50 (MV4-11): 1.14 µM
- IC50 [12]: 0.006 µM
- Activity (MM1.S [13]): Active
- Activity [14]: inactive
- Activity [15]: 61.9%
- Emax [16]: 79.8%
- EC50 (U-87 MG [17]): 66 µM
- Activity (MM1.S [18]): Active

SMILES: O=C(CCCCCCC(=O)Nc1ccccc1)NO [VORINOSTAT]
- IC50 (Histone deacetylase 4): Not_active

SMILES: N#CCCN(C(=O)CCl)c1ccc2c(c1)OCCN2CC(=O)NCCCC(=O)Nc1ccc(C(=O)NCCCCCCC(=O)NO)cc1
- EC50 (MM1.S [1]; Homo sapiens, MM1.S, 72 h): 10.3 µM

SMILES: N#CCCN(C(=O)CCl)c1ccc2c(c1)OCCN2CC(=O)NCCOCCOCCC(=O)Nc1ccc(C(=O)NCCCCCCC(=O)NO)cc1
- EC50 (MM1.S [1]; Homo sapiens, MM1.S, 72 h): 26.7 µM

Continued, values first:

- EC50 (MM1.S [1]; Homo sapiens, MM1.S, 72 h): 1.52 µM
SMILES: N#CCCN(C(=O)CCl)c1ccc2c(c1)OCCN2CC(=O)NCCCCCCCCCCCC(=O)Nc1ccc(C(=O)NCCCCCCC(=O)NO)cc1

- EC50 (MM1.S [1]; Homo sapiens, MM1.S, 72 h): 35.2 µM
SMILES: N#CCCN(C(=O)CCl)c1ccc2c(c1)OCCN2CC(=O)NCCOCCOCCOCCC(=O)Nc1ccc(C(=O)NCCCCCCC(=O)NO)cc1

- EC50 (MM1.S [1]; Homo sapiens, MM1.S, 72 h): 7.75 µM
SMILES: N#CCCN(C(=O)CCl)c1ccc2c(c1)OCCN2CC(=O)NC1CCC(C(=O)Nc2ccc(C(=O)NCCCCCCC(=O)NO)cc2)CC1 (configuration not stated)

- EC50 (MM1.S [1]; mm1.s): 5.02 µM
SMILES: N#CCCN(C(=O)CCl)c1ccc2c(c1)OCCN2CC(=O)NCC(=O)Nc1ccc(C(=O)NCCCCCCC(=O)NO)cc1 [listing 1 of 2 here]

- EC50 (MDA-MB-231 [4]): 26.5 µM
- IC50 (Histone deacetylase 1): 0.074 µM
- IC50 (Histone deacetylase 2): 0.156 µM
- DC50 [7]: 0.257 µM
- EC50 (MM1.S [1]; mm1.s): 2.33 µM
- IC50 (Histone deacetylase 4; read-out: IC50): 13.3 µM
- EC50 (MV4-11): 0.958 µM
- IC50 [12]: 0.009 µM
- EC50 (U-87 MG [17]): 37.4 µM
SMILES: N#CCCN(C(=O)CCl)c1ccc2c(c1)OCCN2CC(=O)NCC(=O)Nc1ccc(C(=O)NCCCCCCC(=O)NO)cc1 [listing 2 of 2 here]
